Drawing on patent US20060148858A1, “1, 2-Azole derivatives with hypoglycemic and hypolipidemic activity” (priority 2002, published 2006), this text covers melting point for 23 compounds.

For orientation: melting point means the temperature, or range, at which the solid turns liquid.

Consider `CCCc1nn(-c2ccc(C(F)(F)F)cn2)cc1CCCOc1nn(-c2ccccc2)cc1CC(=O)O` [Example 67, [1-phenyl-3-(3-{3-propyl-1-[5-(trifluoromethyl)-2-pyridinyl]-1H-pyrazol-4-yl}propoxy)-1H-pyrazol-4-yl]acetic acid], for which the melting point lay within 123 to 124 °C.

On to `CCCc1nn(-c2ccc(C(F)(F)F)cn2)cc1CCCOc1ccccc1CC(=O)O` [Example 47, [2-(3-{3-propyl-1-[5-(trifluoromethyl)-2-pyridyl]-1H-pyrazol-4-yl}propoxy)phenyl]acetic acid], for which the melting point lay in the range of 100 to 101 °C.

As for `CC(C)(Oc1ccc(OCCCCc2cc(-c3ccc(C(F)(F)F)cc3)no2)cc1)C(=O)O` [Example 15, 2-methyl-2-[4-(4-{3-[4-(trifluoromethyl)phenyl]-5-isoxazolyl}butoxy)phenoxy]propionic acid], the melting point was in the range of 103 to 104 °C.

The compound `CCOc1nn(-c2ccc(C(F)(F)F)cn2)cc1CCCOc1cc(CCC(=O)O)n(C)n1` [Example 48, 3-[3-(3-{3-ethoxy-1-[5-(trifluoromethyl)-2-pyridinyl]-1H-pyrazol-4-yl}propoxy)-1-methyl-1H-pyrazol-5-yl]propanoic acid] yielded a melting point of 137 to 138 °C.

In turn, `CCCc1nn(-c2ccc(C(F)(F)F)cn2)cc1COc1ccc(CCC(=O)O)c(C)c1` [Example 121, 3-[2-methyl-4-({3-propyl-1-[5-(trifluoromethyl)-2-pyridyl]-1H-pyrazol-4-yl}methoxy)phenyl]propionic acid] returned a melting point of 129 to 130 °C.

The compound `CCOc1cc(CCC(=O)O)ccc1OCCCc1cn(-c2ccc(C(F)(F)F)cn2)nc1OCC` [Example 162, 3-[3-ethoxy-4-(3-{3-ethoxy-1-[5-(trifluoromethyl)-2-pyridyl]-1H-pyrazol-4-yl}propoxy)phenyl]propanoic acid] had a melting point of 114 to 115 °C.

In the case of `CCOc1nn(-c2ccc(C(F)(F)F)cn2)cc1CCCOc1ccc(OC)cc1CC(=O)O` [Example 132, [2-(3-{3-ethoxy-1-[5-(trifluoromethyl)-2-pyridyl]-1H-pyrazol-4-yl}propoxy)-5-methoxyphenyl]acetic acid], the melting point lay within 138 to 139 °C.

Turning to `CCCc1cn(CC(=O)O)nc1OCCCc1cn(-c2ccc(C(F)(F)F)cn2)nc1CCC` [Example 254, [4-propyl-3-(3-{3-propyl-1-[5-(trifluoromethyl)-2-pyridyl]-1H-pyrazol-4-yl}propoxy)-1H-pyrazol-1-yl]acetic acid], the melting point was 138 to 139 °C.

For the compound `O=C(O)c1cccc(OCCCc2cc(-c3ccc(C(F)(F)F)cc3)no2)c1` [Example 4, 3-(3-{3-[4-(trifluoromethyl)phenyl]-5-isoxazolyl}propoxy)benzoic acid], the melting point is 133 to 134 °C.

In turn, `O=C(O)c1ccccc1OCCCc1cc(-c2ccc(C(F)(F)F)cc2)no1` [Example 6, 2-(3-{3-[4-(trifluoromethyl)phenyl]-5-isoxazolyl}propoxy)benzoic acid] returned a melting point of 132 to 133 °C.

Take `CCOc1nn(-c2ccc(C(F)(F)F)cn2)cc1CCCOc1cccc(OC)c1CC(=O)O` [Example 177, [6-(3-{3-ethoxy-1-[5-(trifluoromethyl)-2-pyridyl]-1H-pyrazol-4-yl}propoxy)-2-methoxyphenyl]acetic acid]: the melting point fell in the range of 150 to 151 °C.

`CCCc1nn(-c2ccc(C(F)(F)F)cn2)cc1CCCOc1c(CC(=O)O)cnn1CC` [Example 326, [1-ethyl-5-(3-{3-propyl-1-[5-(trifluoromethyl)-2-pyridinyl]-1H-pyrazol-4-yl}propoxy)-1H-pyrazol-4-yl]acetic acid] had a melting point of 125 to 126 °C.

Compound `COc1cc(CC(=O)O)cc(OCCCc2cn(-c3ccc(C(F)(F)F)cn3)nc2C(C)C)c1` [Example 203, [3-(3-{3-isopropyl-1-[5-(trifluoromethyl)-2-pyridyl]-1H-pyrazol-4-yl}propoxy)-5-methoxyphenyl]acetic acid] yielded a melting point of 109 to 110 °C.

For the compound `CCCc1nn(-c2ccc(C(F)(F)F)cn2)cc1CCCOc1ccc(CCC(=O)O)cc1` [Example 82, 3-[4-(3-{3-propyl-1-[5-(trifluoromethyl)-2-pyridyl]-1H-pyrazol-4-yl}propoxy)phenyl]propionic acid], the melting point is 118 to 119 °C.

On to `COc1ccc(CC(=O)O)cc1OCCCc1cn(-c2ccc(C(F)(F)F)cn2)nc1C(C)C` [Example 183, [3-(3-{3-isopropyl-1-[5-(trifluoromethyl)-2-pyridyl]-1H-pyrazol-4-yl}propoxy)-4-methoxyphenyl]acetic acid], for which the melting point was 122 to 123 °C.

In turn, `CCc1cccc(CC(=O)O)c1OCCCc1cn(-c2ccc(Br)cn2)nc1C(CC)CC` [Example 355, (2-{3-[1-(5-bromo-2-pyridinyl)-3-(1-ethylpropyl)-1H-pyrazol-4-yl]propoxy}-3-ethylphenyl)acetic acid] had a melting point of 123 °C.

For `CCc1cccc(CC(=O)O)c1OCCCc1cn(-c2ncc(C(F)(F)F)cc2Cl)nc1C(C)C` [Example 249, [2-(3-{1-[3-chloro-5-(trifluoromethyl)-2-pyridinyl]-3-isopropyl-1H-pyrazol-4-yl}propoxy)-3-ethylphenyl]acetic acid], the melting point lay within 93 to 95 °C.

Regarding `CCOc1nn(-c2ccc(C(F)(F)F)cn2)cc1CCCOc1ccc(Cl)cc1CC(=O)O` [Example 139, [5-chloro-2-(3-{3-ethoxy-1-[5-(trifluoromethyl)-2-pyridyl]-1H-pyrazol-4-yl}propoxy)phenyl]acetic acid], the melting point lay within 130 to 131 °C.

`CCCOc1cc(CCC(=O)O)ccc1OCCCc1cn(-c2ccc(C(F)(F)F)cn2)nc1OCC` [Example 163, 3-[4-(3-{3-ethoxy-1-[5-(trifluoromethyl)-2-pyridyl]-1H-pyrazol-4-yl}propoxy)-3-propoxyphenyl]propanoic acid] displayed a melting point of 106 to 107 °C.

`CC(C)c1nn(-c2ccc(C(F)(F)F)cn2)cc1CCCOc1cc(CCC(=O)O)n(C2CCCCC2)n1` [Example 262, 3-[1-cyclohexyl-3-(3-{3-isopropyl-1-[5-(trifluoromethyl)-2-pyridyl]-1H-pyrazol-4-yl}propoxy)-1H-pyrazol-5-yl]propanoic acid] displayed a melting point of 166 to 167 °C.

Compound `Cc1cccc(CC(=O)O)c1OCCCc1cn(-c2ccc(Cl)cn2)nc1C(C)(C)C` [Example 371, (2-{3-[3-tert-butyl-1-(5-chloropyridin-2-yl)-1H-pyrazol-4-yl]propoxy}-3-methylphenyl)acetic acid] gave a melting point of 112 to 113 °C.

As to `CCOc1ccc(OCCCc2cn(-c3ccc(C(F)(F)F)cn3)nc2OCC)c(CCC(=O)O)c1` [Example 140, 3-[2-(3-{3-ethoxy-1-[5-(trifluoromethyl)-2-pyridyl]-1H-pyrazol-4-yl}propoxy)-5-ethoxyphenyl]propionic acid], the melting point is 104 to 105 °C.

For the compound `CCc1cccc(CC(=O)O)c1OCCCc1cn(-c2ccc(C(F)(F)F)nn2)nc1C(CC)CC` [Example 341, [3-ethyl-2-(3-{3-(1-ethylpropyl)-1-[6-(trifluoromethyl)pyridazin-3-yl]-1H-pyrazol-4-yl}propoxy)phenyl]acetic acid], the melting point was 93 to 94 °C.
